{
  "source": "patent US20030144360A1",
  "about": "“Composition and method for modulating BAR/FXR receptor activity” (Allergan Sales, Inc., priority 2001, published 2003)",
  "key": {"[1]": {"molecular_target": "T1, RFXRop / HRXRop (UniProt P19793+Q62735)", "T1 sequence (Q62735 1-469)": "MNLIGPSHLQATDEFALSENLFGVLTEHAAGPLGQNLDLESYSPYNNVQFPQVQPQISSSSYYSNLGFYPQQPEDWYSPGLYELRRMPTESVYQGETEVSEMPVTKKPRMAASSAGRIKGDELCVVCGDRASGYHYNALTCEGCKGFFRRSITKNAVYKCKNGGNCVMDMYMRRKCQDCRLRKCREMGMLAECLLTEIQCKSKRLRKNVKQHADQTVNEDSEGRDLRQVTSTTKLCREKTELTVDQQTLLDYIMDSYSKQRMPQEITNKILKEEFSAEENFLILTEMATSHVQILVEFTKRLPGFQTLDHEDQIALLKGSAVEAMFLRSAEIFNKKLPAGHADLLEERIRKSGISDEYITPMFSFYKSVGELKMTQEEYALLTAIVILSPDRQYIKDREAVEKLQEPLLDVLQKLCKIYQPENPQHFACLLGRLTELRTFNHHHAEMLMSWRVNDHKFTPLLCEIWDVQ", "T1 sequence (P19793 1-462)": "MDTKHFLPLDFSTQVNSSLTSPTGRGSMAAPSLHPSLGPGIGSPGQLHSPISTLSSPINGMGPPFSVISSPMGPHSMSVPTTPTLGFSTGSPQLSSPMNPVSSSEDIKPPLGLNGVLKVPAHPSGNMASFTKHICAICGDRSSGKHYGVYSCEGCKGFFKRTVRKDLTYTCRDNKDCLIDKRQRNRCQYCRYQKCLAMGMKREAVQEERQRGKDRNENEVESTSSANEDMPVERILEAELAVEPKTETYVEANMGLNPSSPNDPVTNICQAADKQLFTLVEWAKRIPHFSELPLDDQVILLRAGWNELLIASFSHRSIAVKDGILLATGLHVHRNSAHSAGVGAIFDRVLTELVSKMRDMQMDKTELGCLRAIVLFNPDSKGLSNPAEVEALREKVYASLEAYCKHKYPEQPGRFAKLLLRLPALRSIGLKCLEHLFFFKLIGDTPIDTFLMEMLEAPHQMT", "test": "Co-transfection luciferase assay, EcRE × 6 reporter, RFXRop + HRXRop;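 note: CV-1 monkey cells transiently transfected with receptor expression vectors, reporter construct and β-galactosidase internal control, exposed to compound about 40 h, then luciferase chemiluminescence read by luminometer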", "procedure": "(§1) CV-1 African Green Monkey cells were grown in Dulbecco's Modified Eagle's medium supplemented with 10% resin-charcoal stripped fetal bovine serum (FBS), 50 U/ml penicillin G and 50 μg/ml streptomycin sulfate (DMEM-FBS) at 37° C. in 5% CO2. One day prior to transfection, cells were plated to 50-80% confluence using phenol red-free DMEM-FBS. Cells were transiently transfected by lipofection as described in Forman et al., 81 Cell 687 (1995). Liposomes (N-[1-(2,3-dioleoyloxy)propyl]-N,N,N-ammonium methyl sulfate, sold by Boehringer Mannheim under the name DOTAP) were formed according to the manufacturer's instructions. The liposomes contained reporter gene constructs (300 ng/10^5 cells); cytomegalovirus driven expression vectors (25 ng/10^5 cells) were added as indicated along with CMX-Bgal (500 ng/10^5 cells) as an internal control. After 2 hours the liposomes were removed and replaced with fresh media. Cells were incubated for approximately 40 hours with phenol red-free DMEM-FBS containing the indicated compounds. After exposure to the specified ligand, the cells were harvested.\n(§2) The harvested cells were assayed for the presence of luciferase activity. Cells were lysed in 0.1 M KPO4 (pH 7.8), 1.0% TRITON® X-100, 1.0 mM dithiolthreitol (DTT) and 2 mM ethylenediamine tetracetic acid (EDTA). Luciferase activity was measured by reaction of the cell lysates with luciferin in a reaction buffer comprising: 20 mM tricine, 1.07 mM Mg(CO3)4-Mg(OH)2-5H2O, 2.67 mM MgSO4.7H2O, 0.1 mM EDTA, 0.5 mM Sodium luciferin, 0.15 mg/ml Coenzyme A, 5 mM DTT, and 0.5 mM adenosine triphosphate (ATP). Resulting chemiluminescence was measured in a luminometer. […] All points were assayed in triplicate and varied by less than 15%. Each experiment was repeated three or more times with similar results.\n(§3) As shown below, in most cases hRXRop was recombinantly coexpressed with one other of the indicated receptor constructs, so as to permit the formation of hetero-or homodimers containing hRXRop.\n(§4) Expression of the luciferase reporter gene product was detected and quantified as described above."}, "[2]": {"molecular_target": "T2, GAL-L-hRXRa (Homo sapiens, UniProt P19793)", "T2 sequence (P19793 203-462)": "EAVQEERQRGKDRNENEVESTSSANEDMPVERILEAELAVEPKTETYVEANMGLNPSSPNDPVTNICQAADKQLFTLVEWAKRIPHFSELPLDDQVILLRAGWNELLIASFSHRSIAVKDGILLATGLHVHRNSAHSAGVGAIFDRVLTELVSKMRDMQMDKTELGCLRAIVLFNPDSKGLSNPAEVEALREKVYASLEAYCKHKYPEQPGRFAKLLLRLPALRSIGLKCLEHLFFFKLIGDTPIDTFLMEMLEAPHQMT", "test": "Co-transfection luciferase assay, MH100 × 4 reporter, GAL-L-hRXRa alone", "procedure": "as §1, §2, §3, §4"}},
  "note": "Several values for one entry are separate records, joined by “and”; a condition that tells them apart may be missing. Identical values can stand only once.",
  "data": [
    {"molecule": "CCCCCCOc1c(\\C(C)=C/C=C/C(C)=C/C(=O)O)cc(C(C)C)cc1C(C)C", "note": "[AGN 34, (2E, 4E, 6Z)-7-(2-Hexyloxy-3,5-diisopropylphenyl)-3-methylocta-2,4,6-trienoic Acid]", "values": [
      {"measurement": "Fold Activation", "setting": "[1]; 0.1 μM LG268 + 0.01 μM AGN 34", "result": 18.59, "unit": "fold"},
      {"measurement": "Reporter Activity", "setting": "[1]; 0.1 μM LG268 + 0.01 μM AGN 34", "result": 5.24},
      {"measurement": "Fold Activation", "setting": "[1]; 0.1 μM LG268 + 0.1 μM AGN 34", "result": 1.55, "unit": "fold"},
      {"measurement": "Reporter Activity", "setting": "[1]; 0.1 μM LG268 + 0.1 μM AGN 34", "result": 0.44},
      {"measurement": "Fold Activation", "setting": "[1]; 0.1 μM LG268 + 1 μM AGN 34", "result": 0.88, "unit": "fold"},
      {"measurement": "Reporter Activity", "setting": "[1]; 0.1 μM LG268 + 1 μM AGN 34", "result": 0.25},
      {"measurement": "Fold Activation", "setting": "[1]; 0.1 μM LG268 + 3 μM AGN 34", "result": 0.92, "unit": "fold"},
      {"measurement": "Reporter Activity", "setting": "[1]; 0.1 μM LG268 + 3 μM AGN 34", "result": 0.26},
      {"measurement": "Fold Activation", "setting": "[1]; 0.1 μM LG268 + 10 μM AGN 34", "result": 0.90, "unit": "fold"},
      {"measurement": "Reporter Activity", "setting": "[1]; 0.1 μM LG268 + 10 μM AGN 34", "result": 0.25},
      {"measurement": "Fold Activation", "setting": "[1]; 10 μM AGN 34 alone", "result": "0.84 fold and 1.02 fold"},
      {"measurement": "Reporter Activity", "setting": "[1]; 10 μM AGN 34 alone", "result": "0.27 and 0.29"},
      {"measurement": "Fold Activation", "setting": "[1]; 50 μM CDCA + 0.01 μM AGN 34", "result": 9.03, "unit": "fold"},
      {"measurement": "Reporter Activity", "setting": "[1]; 50 μM CDCA + 0.01 μM AGN 34", "result": 2.92},
      {"measurement": "Fold Activation", "setting": "[1]; 50 μM CDCA + 0.1 μM AGN 34", "result": 6.32, "unit": "fold"},
      {"measurement": "Reporter Activity", "setting": "[1]; 50 μM CDCA + 0.1 μM AGN 34", "result": 2.05},
      {"measurement": "Fold Activation", "setting": "[1]; 50 μM CDCA + 1 μM AGN 34", "result": "3.94 fold and 4.99 fold"},
      {"measurement": "Reporter Activity", "setting": "[1]; 50 μM CDCA + 1 μM AGN 34", "result": 1.28},
      {"measurement": "Fold Activation", "setting": "[1]; 50 μM CDCA + 3 μM AGN 34", "result": 3.04, "unit": "fold"},
      {"measurement": "Reporter Activity", "setting": "[1]; 50 μM CDCA + 3 μM AGN 34", "result": 0.98},
      {"measurement": "Fold Activation", "setting": "[1]; 50 μM CDCA + 10 μM AGN 34", "result": 3.94, "unit": "fold"},
      {"measurement": "Reporter Activity", "setting": "[1]; 50 μM CDCA + 10 μM AGN 34", "result": 1.28},
      {"measurement": "Fold Activation", "setting": "[2]; 0.1 μM LG268 + 0.01 μM AGN 34", "result": 33.56, "unit": "fold"},
      {"measurement": "Reporter Activity", "setting": "[2]; 0.1 μM LG268 + 0.01 μM AGN 34", "result": 11.17},
      {"measurement": "Fold Activation", "setting": "[2]; 0.1 μM LG268 + 0.1 μM AGN 34", "result": 8.61, "unit": "fold"},
      {"measurement": "Reporter Activity", "setting": "[2]; 0.1 μM LG268 + 0.1 μM AGN 34", "result": 2.86},
      {"measurement": "Fold Activation", "setting": "[2]; 0.1 μM LG268 + 1 μM AGN 34", "result": 1.07, "unit": "fold"},
      {"measurement": "Reporter Activity", "setting": "[2]; 0.1 μM LG268 + 1 μM AGN 34", "result": 0.36},
      {"measurement": "Fold Activation", "setting": "[2]; 0.1 μM LG268 + 3 μM AGN 34", "result": 1.05, "unit": "fold"},
      {"measurement": "Reporter Activity", "setting": "[2]; 0.1 μM LG268 + 3 μM AGN 34", "result": 0.35},
      {"measurement": "Fold Activation", "setting": "[2]; 0.1 μM LG268 + 10 μM AGN 34", "result": 0.98, "unit": "fold"},
      {"measurement": "Reporter Activity", "setting": "[2]; 0.1 μM LG268 + 10 μM AGN 34", "result": 0.33},
      {"measurement": "Fold Activation", "setting": "[2]; 10 μM AGN 34 alone", "result": "1.14 fold and 1.12 fold"},
      {"measurement": "Reporter Activity", "setting": "[2]; 10 μM AGN 34 alone", "result": "0.38 and 0.37"},
      {"measurement": "Fold Activation", "setting": "[2]; 50 μM CDCA + 0.01 μM AGN 34", "result": 1.03, "unit": "fold"},
      {"measurement": "Reporter Activity", "setting": "[2]; 50 μM CDCA + 0.01 μM AGN 34", "result": 0.34},
      {"measurement": "Fold Activation", "setting": "[2]; 50 μM CDCA + 0.1 μM AGN 34", "result": 0.92, "unit": "fold"},
      {"measurement": "Reporter Activity", "setting": "[2]; 50 μM CDCA + 0.1 μM AGN 34", "result": 0.31},
      {"measurement": "Reporter Activity", "setting": "[2]; 50 μM CDCA + 1 μM AGN 34", "result": 0.37},
      {"measurement": "Fold Activation", "setting": "[2]; 50 μM CDCA + 3 μM AGN 34", "result": 1.05, "unit": "fold"},
      {"measurement": "Reporter Activity", "setting": "[2]; 50 μM CDCA + 3 μM AGN 34", "result": 0.35},
      {"measurement": "Fold Activation", "setting": "[2]; 50 μM CDCA + 10 μM AGN 34", "result": 1.10, "unit": "fold"},
      {"measurement": "Reporter Activity", "setting": "[2]; 50 μM CDCA + 10 μM AGN 34", "result": 0.37}
    ]}
  ]
}
